From US11938121B2, “Treatment of infections and biofilm formation using a cellulose synthase inhibitor” (Purdue Research Foundation, priority 2020, dated 2024) come the findings set out here.

The target in the assay is T1, YFP-AtCESA6 (Arabidopsis thaliana, UniProt Q94JQ6).
T1 construct: expressed in transfected cells; host or cells: transgenic Arabidopsis thaliana YFP-AtCESA6 seedlings (total protein extract for DARTS; root epidermal cells for imaging)
T1 sequence (Q94JQ6 1-1084): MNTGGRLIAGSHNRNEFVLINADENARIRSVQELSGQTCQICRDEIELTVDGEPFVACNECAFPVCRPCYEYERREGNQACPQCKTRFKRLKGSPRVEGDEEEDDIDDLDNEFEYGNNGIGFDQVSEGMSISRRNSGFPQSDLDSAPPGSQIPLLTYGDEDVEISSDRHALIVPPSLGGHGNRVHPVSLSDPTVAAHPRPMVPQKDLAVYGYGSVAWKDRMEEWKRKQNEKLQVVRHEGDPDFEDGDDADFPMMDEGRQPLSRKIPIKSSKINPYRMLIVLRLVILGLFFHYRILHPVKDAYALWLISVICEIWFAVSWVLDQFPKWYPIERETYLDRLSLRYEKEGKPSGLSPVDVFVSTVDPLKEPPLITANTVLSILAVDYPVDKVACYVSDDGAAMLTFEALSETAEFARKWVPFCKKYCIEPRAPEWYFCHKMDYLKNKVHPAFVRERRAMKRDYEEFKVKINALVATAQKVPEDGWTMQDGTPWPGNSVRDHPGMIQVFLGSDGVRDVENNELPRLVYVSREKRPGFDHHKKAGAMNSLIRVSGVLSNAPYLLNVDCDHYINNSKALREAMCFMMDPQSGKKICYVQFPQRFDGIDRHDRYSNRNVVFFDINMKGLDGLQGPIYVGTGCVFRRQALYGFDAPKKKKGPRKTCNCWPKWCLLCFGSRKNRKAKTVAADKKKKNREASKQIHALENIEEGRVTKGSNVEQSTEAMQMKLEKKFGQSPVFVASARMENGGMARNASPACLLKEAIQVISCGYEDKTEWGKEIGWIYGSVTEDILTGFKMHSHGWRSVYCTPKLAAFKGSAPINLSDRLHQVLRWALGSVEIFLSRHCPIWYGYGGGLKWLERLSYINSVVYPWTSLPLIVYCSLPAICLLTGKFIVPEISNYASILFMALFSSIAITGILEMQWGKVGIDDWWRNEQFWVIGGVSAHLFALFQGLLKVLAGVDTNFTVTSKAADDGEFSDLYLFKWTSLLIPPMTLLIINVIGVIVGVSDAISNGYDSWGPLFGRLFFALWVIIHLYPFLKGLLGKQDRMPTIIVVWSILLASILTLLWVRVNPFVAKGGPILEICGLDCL
T1 sequence (O48946 1-1081 partner): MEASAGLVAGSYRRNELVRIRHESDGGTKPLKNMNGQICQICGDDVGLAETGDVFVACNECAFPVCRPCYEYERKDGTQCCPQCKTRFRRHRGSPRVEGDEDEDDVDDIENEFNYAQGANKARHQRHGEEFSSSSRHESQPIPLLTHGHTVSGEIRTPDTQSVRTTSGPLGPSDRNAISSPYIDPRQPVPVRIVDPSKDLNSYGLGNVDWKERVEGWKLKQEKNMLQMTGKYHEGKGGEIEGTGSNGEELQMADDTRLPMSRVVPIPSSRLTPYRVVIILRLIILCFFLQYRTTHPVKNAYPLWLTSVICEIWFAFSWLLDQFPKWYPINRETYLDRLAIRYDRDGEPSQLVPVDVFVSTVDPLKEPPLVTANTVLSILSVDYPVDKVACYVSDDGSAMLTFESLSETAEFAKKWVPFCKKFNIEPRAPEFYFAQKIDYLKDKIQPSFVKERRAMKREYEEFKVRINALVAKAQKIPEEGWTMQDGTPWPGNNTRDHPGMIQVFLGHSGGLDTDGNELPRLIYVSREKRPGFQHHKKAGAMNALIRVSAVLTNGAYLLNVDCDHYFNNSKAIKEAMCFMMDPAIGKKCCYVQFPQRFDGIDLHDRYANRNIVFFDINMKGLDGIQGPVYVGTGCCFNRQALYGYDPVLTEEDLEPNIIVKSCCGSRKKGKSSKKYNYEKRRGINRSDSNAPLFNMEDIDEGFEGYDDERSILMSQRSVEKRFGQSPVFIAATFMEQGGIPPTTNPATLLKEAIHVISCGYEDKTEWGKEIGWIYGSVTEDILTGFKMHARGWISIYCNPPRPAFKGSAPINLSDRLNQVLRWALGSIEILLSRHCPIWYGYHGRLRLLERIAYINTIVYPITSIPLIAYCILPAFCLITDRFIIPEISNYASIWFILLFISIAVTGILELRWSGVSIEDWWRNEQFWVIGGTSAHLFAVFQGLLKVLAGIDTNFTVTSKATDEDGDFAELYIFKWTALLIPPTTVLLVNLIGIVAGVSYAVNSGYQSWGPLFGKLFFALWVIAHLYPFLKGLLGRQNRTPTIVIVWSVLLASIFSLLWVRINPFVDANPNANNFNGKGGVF
T1 sequence (Q941L0 1-1065 partner): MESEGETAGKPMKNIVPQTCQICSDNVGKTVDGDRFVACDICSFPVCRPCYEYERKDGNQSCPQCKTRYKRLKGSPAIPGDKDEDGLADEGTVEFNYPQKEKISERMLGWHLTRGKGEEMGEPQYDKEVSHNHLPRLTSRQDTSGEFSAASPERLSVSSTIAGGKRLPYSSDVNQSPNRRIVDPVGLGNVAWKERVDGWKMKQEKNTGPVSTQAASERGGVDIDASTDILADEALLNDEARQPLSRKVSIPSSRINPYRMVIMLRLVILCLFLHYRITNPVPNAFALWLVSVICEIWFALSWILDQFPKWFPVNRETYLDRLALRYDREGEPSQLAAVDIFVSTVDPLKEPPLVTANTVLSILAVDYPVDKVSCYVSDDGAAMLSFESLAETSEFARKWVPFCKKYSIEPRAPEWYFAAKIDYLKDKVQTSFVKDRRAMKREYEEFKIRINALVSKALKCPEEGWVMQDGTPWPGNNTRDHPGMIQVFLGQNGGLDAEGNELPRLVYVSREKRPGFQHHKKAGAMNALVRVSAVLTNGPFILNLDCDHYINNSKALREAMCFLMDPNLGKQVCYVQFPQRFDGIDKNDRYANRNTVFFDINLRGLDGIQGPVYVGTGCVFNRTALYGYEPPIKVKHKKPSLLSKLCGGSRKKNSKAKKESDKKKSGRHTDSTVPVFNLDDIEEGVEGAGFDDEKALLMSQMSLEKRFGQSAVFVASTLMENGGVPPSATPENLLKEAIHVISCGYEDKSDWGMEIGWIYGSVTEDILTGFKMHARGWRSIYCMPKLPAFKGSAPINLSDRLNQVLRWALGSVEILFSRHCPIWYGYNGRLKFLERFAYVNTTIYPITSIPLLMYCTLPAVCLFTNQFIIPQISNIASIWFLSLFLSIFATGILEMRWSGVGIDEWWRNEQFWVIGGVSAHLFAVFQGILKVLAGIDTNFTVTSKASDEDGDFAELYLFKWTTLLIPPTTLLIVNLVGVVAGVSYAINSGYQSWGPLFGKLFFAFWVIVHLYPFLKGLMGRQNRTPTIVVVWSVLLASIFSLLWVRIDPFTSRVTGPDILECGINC
The experiment in a line: DARTS assay. Type of assay: binding. Conditions: total protein from YFP-AtCESA6 seedlings, vs DMSO. The method, then:
To further validate that ES20-1 targets AtCESA6, we looked for a direct interaction between ES20-1 and AtCESA6. We performed a DARTS (Drug Affinity Responsive Target Stability) assay to test the interaction of ES20-1 with endogenous AtCESA6. We incubated total protein from YFP-AtCESA6 seedlings with either DMSO (as a control) or ES20-1 and digested the mixtures with protease. […] We also purified the central cytosolic domain of AtCESA6 (CESA6c) from E. coli (FIG. 3J) and performed a Microscale thermophoresis (MST) assay to test its interaction with ES20-1. […] We purified AtCESA6 central cytoplasmic domain carrying missense mutation P595S (CESA6c^P595S) and tested its interaction with ES20 and ES20-1 (3O).
To test for an interaction between AtCESA6 and ES20-1 using a DARTS assay, 7-day-old YFP-AtCESA6 light-grown seedlings were harvested and ground to a powder in liquid nitrogen. The ground tissue was homogenized in lysis buffer (50 mM Tris-HCl, pH 7.5, 150 mM NaCl, 0.5% Triton X-100, 2 mM DTT, one tablet/50 mL EDTA free Pierce protease inhibitor [Thermo Fisher]) at 2:1 ratio (2 mL buffer: 1 g tissue). […] The X-ray films were scanned, and the signal intensity of each protein band was quantified after background subtraction using Image J. The relative intensities were quantified by dividing the values in ES20-1-treated samples by the values in DMSO-treated samples.

For the molecule `Cc1ccccc1C(=O)NNC(=S)NC(=O)c1ccccc1` [ES20-1], the “interaction with endogenous AtCESA6 (protection from protease)” value was “interacts with endogenous AtCESA6 and protects it from degradation”.
